What is called melting point is the temperature, or range, at which the solid turns liquid.

This passage reports melting point results from patent publication US6348468B1, “Pyridazine compounds and compositions containing the same” (Kowa Co., Ltd., priority 1997, dated 2002).

`CSc1ccc(-c2n[nH]c(=O)cc2-c2ccc(F)cc2)cc1` [Example 9, 5-(4-fluorophenyl)-6-[4-(methylthio)phenyl]-2H-pyridazin-3-one] had a melting point of 197.4 to 198.2 °C. In turn, `COc1ccc(-c2cc(=O)n(CCCOc3ccccc3)nc2-c2ccc(OC)cc2)cc1` [Example 20, 5,6-bis(4-methoxyphenyl)-2-[3-(phenoxy)propyl]-2H-pyridazin-3-one] had a melting point of 110 to 111 °C.

Regarding `COc1ccc(-c2cc(=O)n(Cc3ccc(Cl)cc3)nc2-c2ccc(OC)cc2)cc1` [Example 33, 5,6-bis(4-methoxyphenyl)-2-(4-chlorobenzyl)-2H-pyridazin-3-one], the melting point fell in the range of 124.2 to 127.3 °C.

`COC(=O)c1ccc(Cn2nc(-c3ccc(OC)cc3)c(-c3ccc(OC)cc3)cc2=O)cc1` [Example 42, 5,6-bis(4-methoxyphenyl)-2-(4-methoxycarbonylbenzyl)-2H-pyridazin-3-one] yielded a melting point of 185.5 to 186.6 °C. `COc1ccc(-c2cc(=O)n(Cc3ccccn3)nc2-c2ccc(OC)cc2)cc1` [Example 43, 5,6-bis(4-methoxyphenyl)-2-(2-pyridylmethyl)-2H-pyridazin-3-one]: the melting point lay within 116 to 117 °C. `COc1ccc(-c2cc(=O)n(Cc3ccncc3)nc2-c2ccc(OC)cc2)cc1` [Example 45, 5,6-bis(4-methoxyphenyl)-2-(4-pyridylmethyl)-2H-pyridazin-3-one] yielded a melting point of 182.1 to 183.1 °C. Take `COc1ccc(-c2nn(Cc3ccccc3)c(=O)cc2-c2ccc(Cl)cc2)cc1` [Example 49, 5-(4-chlorophenyl)-6-(4-methoxyphenyl)-2-benzyl-2H-pyridazin-3-one]: the melting point lay within 165 to 167 °C. The value for `COc1ccc(-c2nn(Cc3ccncc3)c(=O)cc2-c2ccc(Cl)cc2)cc1` [Example 50, 5-(4-chlorophenyl)-6-(4-methoxyphenyl)-2-(4-pyridylmethyl)-2H-pyridazin-3-one] was 142 to 143 °C; that for `CSc1ccc(-c2nn(Cc3ccc(F)cc3F)c(=O)cc2-c2ccc(Cl)cc2)cc1` [Example 53, 5-(4-chlorophenyl)-6-[4-(methylthio)phenyl]-2-(2,4-difluorobenzyl)-2H-pyridazin-3-one] was 157.4 to 157.5 °C. Turning to `CSc1ccc(-c2nn(Cc3ccc(Cl)cc3Cl)c(=O)cc2-c2ccc(Cl)cc2)cc1` [Example 54, 5-(4-chlorophenyl)-6-[4-(methylthio)phenyl]-2-(2,4-dichlorobenzyl)-2H-pyridazin-3-one], the melting point is 154.5 to 155 °C. Consider `CSc1ccc(-c2nn(CC=Cc3ccccc3)c(=O)cc2-c2ccc(Cl)cc2)cc1` [Example 56, 5-(4-chlorophenyl)-6-[4-(methylthio)phenyl]-2-cinnamyl-2H-pyridazin-3-one], for which the melting point lay within 109.3 to 110.2 °C. In turn, `COc1ccc(Cn2nc(-c3ccc(SC)cc3)c(-c3ccc(F)cc3)cc2=O)cc1` [Example 62, 5-(4-fluorophenyl)-6-[4-(methylthio)phenyl]-2-(4-methoxybenzyl)-2H-pyridazin-3-one] showed a melting point of 165.3 to 165.7 °C. On to `CSc1ccc(Cn2nc(-c3ccc(SC)cc3)c(-c3ccc(F)cc3)cc2=O)cc1` [Example 63, 5-(4-fluorophenyl)-6-[4-(methylthio)phenyl]-2-[4-(methylthio)benzyl]-2H-pyridazin-3-one], for which the melting point was in the range of 116 to 116.1 °C. For the compound `CSc1ccc(-c2nn(Cc3cccnc3)c(=O)cc2-c2ccc(F)cc2)cc1` [Example 67, 5-(4-fluorophenyl)-6-[4-(methylthio)phenyl]-2-(3-pyridylmethyl)-2H-pyridazin-3-one], the melting point fell in the range of 159.8 to 160.7 °C. The compound `CSc1ccc(-c2nn(Cc3ccccc3)c(=O)cc2-c2ccccc2)cc1` [Example 71, 2-benzyl-6-[4-(methylthio)phenyl]-5-phenyl-2H-pyridazin-3-one] registered a melting point of 157.3 to 158.4 °C. The value for `C[S+]([O-])c1ccc(-c2nn(Cc3ccccc3)c(=O)cc2-c2ccc(Cl)cc2)cc1` (stereo not shown) [Example 85, 2-benzyl-5-(4-chlorophenyl)-6-[4-(methylsulfinyl)phenyl]-2H-pyridazin-3-one] was 143.7 to 144.7 °C. In turn, `C[S+]([O-])c1ccc(-c2nn(CC3CC3)c(=O)cc2-c2ccc(Cl)cc2)cc1` (stereo not shown) [Example 86, 5-(4-chlorophenyl)-2-cyclopropylmethyl-6-[4-(methylsulfinyl)phenyl]-2H-pyridazin-3-one] yielded a melting point of 152.2 to 152.3 °C. For the compound `C[S+]([O-])c1ccc(-c2nn(CC3CC3)c(=O)cc2-c2ccc(F)cc2)cc1` (stereo not shown) [Example 87, 2-cyclopropylmethyl-5-(4-fluorophenyl)-6-[4-(methylsulfinyl)phenyl]-2H-pyridazin-3-one], the melting point lay in the range of 133.3 to 133.5 °C. The compound `COc1ccc(Cn2nc(-c3ccc([S+](C)[O-])cc3)c(-c3ccc(F)cc3)cc2=O)cc1` (stereo not shown) [Example 89, 5-(4-fluorophenyl)-2-(4-methoxybenzyl)-6-[4-(methylsulfinyl)phenyl]-2H-pyridazin-3-one] displayed a melting point of 81.3 to 81.5 °C. For the compound `C[S+]([O-])c1ccc(-c2nn(Cc3ccc(F)cc3F)c(=O)cc2-c2ccc(Cl)cc2)cc1` (stereo not shown) [Example 91, 2-(2,4-difluorobenzyl)-5-(4-chlorophenyl)-6-[4-(methylsulfinyl)phenyl]-2H-pyridazin-3-one], the melting point is 155.6 to 155.7 °C.

Compound `C[S+]([O-])c1ccc(-c2nn(Cc3ccc(Cl)cc3Cl)c(=O)cc2-c2ccc(Cl)cc2)cc1` (stereo not shown) [Example 92, 5-(4-chlorophenyl)-2-(2,4-dichlorobenzyl)-6-[4-(methylsulfinyl)phenyl]-2H-pyridazin-3-one] registered a melting point of 236.5 to 237.3 °C. Then `CS(=O)(=O)c1ccc(-c2nn(Cc3ccccc3)c(=O)cc2-c2ccc(Cl)cc2)cc1` [Example 97, 2-benzyl-5-(4-chlorophenyl)-6-[4-(methylsulfonyl)phenyl]-2H-pyridazin-3-one], with 103.2 to 105.7 °C; and `CS(=O)(=O)c1ccc(-c2n[nH]c(=O)cc2-c2ccc(Cl)cc2)cc1` [Example 98, 5-(4-chlorophenyl)-6-[4-(methylsulfonyl)phenyl]-2H-pyridazin-3-one], with 254 to 254.7 °C. On to `CS(=O)(=O)c1ccc(-c2nn(CC3CC3)c(=O)cc2-c2ccc(Cl)cc2)cc1` [Example 99, 5-(4-chlorophenyl)-2-cyclopropylmethyl-6-[4-(methylsulfonyl)phenyl]-2H-pyridazin-3-one], for which the melting point fell in the range of 139.7 to 139.8 °C. The value for `CS(=O)(=O)c1ccc(-c2nn(CC3CC3)c(=O)cc2-c2ccc(F)cc2)cc1` [Example 100, 2-cyclopropylmethyl-5-(4-fluorophenyl)-6-[4-(methylsulfonyl)phenyl]-2H-pyridazin-3-one] was 123.8 to 123.9 °C; that for `CS(=O)(=O)c1ccc(-c2nn(Cc3ccc(F)cc3F)c(=O)cc2-c2ccc(Cl)cc2)cc1` [Example 103, 2-(2,4-difluorobenzyl)-5-(4-chlorophenyl)-6-[4-(methylsulfonyl)phenyl]-2H-pyridazin-3-one] was 173.8 to 173.9 °C; that for `CS(=O)(=O)c1ccc(-c2nn(Cc3ccc(Cl)cc3Cl)c(=O)cc2-c2ccc(Cl)cc2)cc1` [Example 104, 5-(4-chlorophenyl)-2-(2,4-dichlorobenzyl)-6-[4-(methylsulfonyl)phenyl]-2H-pyridazin-3-one] was 232.7 to 234.5 °C. With `CS(=O)(=O)c1ccc(-c2nn(Cc3cccnc3)c(=O)cc2-c2ccc(Cl)cc2)cc1` [Example 106, 5-(4-chlorophenyl)-6-[4-(methylsulfonyl)phenyl]-2-(3-pyridylmethyl)-2H-pyridazin-3-one], the melting point was in the range of 248 to 248.1 °C. Take `CS(=O)(=O)c1ccc(-c2nn(Cc3ccncc3)c(=O)cc2-c2ccc(F)cc2)cc1` [Example 107, 5-(4-fluorophenyl)-6-[4-(methylsulfonyl)phenyl]-2-(4-pyridylmethyl)-2H-pyridazin-3-one]: the melting point lay in the range of 253.3 to 254.5 °C. The value for `CS(=O)(=O)c1ccc(-c2nn(CCCc3ccccc3)c(=O)cc2-c2ccc(Cl)cc2)cc1` [Example 108, 5-(4-chlorophenyl)-6-[4-(methylsulfonyl)phenyl]-2-(3-phenylpropyl)-2H-pyridazin-3-one] was 70.2 to 71.6 °C; that for `CS(=O)(=O)c1ccc(-c2nn(Cc3ccccc3)c(=O)cc2-c2ccccc2)cc1` [Example 109, 2-benzyl-6-[4-(methylsulfonyl)phenyl]-5-phenyl-2H-pyridazin-3-one] was 211 to 212 °C; that for `COc1ccc(-c2cc(=O)n(Cc3ccc(C(=O)O)cc3)nc2-c2ccc(OC)cc2)cc1` [Example 112, 5,6-bis(4-methoxyphenyl)-2-(4-carboxybenzyl)-2H-pyridazin-3-one] was 241 to 242 °C. Consider `COc1ccc(-c2cc(=O)n(CCC(=O)NCc3ccccc3)nc2-c2ccc(OC)cc2)cc1` [Example 115, 5,6-bis(4-methoxyphenyl)-2-[2-(benzylaminocarbonyl)ethyl]-2H-pyridazin-3-one], for which the melting point is 135 to 137 °C. `CSc1ccc(C2=NN(Cc3ccccc3)C(=O)CC2c2ccc(Cl)cc2)cc1` (stereo not shown) [Example 121, 2-benzyl-5-(4-chlorophenyl)-4,5-dihydro-6-[4-(methylthio)phenyl]-2H-pyridazin-3-one] gave a melting point of 113.5 to 113.9 °C. `CSc1ccc(-c2nn(Cc3ccc(F)cc3F)c(=S)cc2-c2ccc(Cl)cc2)cc1` [Example 133, 5-(4-chlorophenyl)-2-(2,4-difluorobenzyl)-6-[4-(methylthio)phenyl]-2H-pyridazine-3-thione] yielded a melting point of 176.5 to 176.6 °C. `CSc1ccc(-c2n[nH]c(=S)cc2-c2ccc(F)cc2)cc1` [Example 136, 5-(4-fluorophenyl)-6-[4-(methylthio)phenyl]-2H-pyridazine-3-thione] came in with a melting point of 218.7 to 218.9 °C. Turning to `CSc1ccc(-c2nn(Cc3ccccc3)c(=S)cc2-c2ccc(F)cc2)cc1` [Example 138, 2-benzyl-5-(4-fluorophenyl)-6-[4-(methylthio)phenyl]-2H-pyridazine-3-thione], the melting point lay within 108.1 to 108.2 °C.
